Experimental data from patent US12599136B2, “Substituted isophthalic acid diamides and their use as herbicides” (Bayer Aktiengesellschaft, priority 2020, dated 2026).

What was measured:
Format in all cases: in vivo
Stellaria media [1] = assay: Pre-emergence herbicidal action against STEME
Procedure, shortened: (§1)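 Seeds sown in sandy loam, soil-covered; compound sprayed on soil surface pre-emergence. Application: WP/EC, 600–800 l/ha, 0.2% wetting agent. Readout: visual % damage at 3 weeks.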

Polygonum convolvulus [2] = assay: Pre-emergence herbicidal action against POLCO; conditions: 320 g/ha
Procedure, shortened: as §1

Pharbitis purpurea [3] = assay: Pre-emergence herbicidal action against PHBPU; conditions: 320 g/ha; visual score after 3 weeks vs untreated controls
Procedure, shortened: as §1

Cyperus esculentus = assay: Pre-emergence herbicidal action against CYPES; conditions: 320 g/ha; visual score after 3 weeks vs untreated controls
Procedure, shortened: as §1

Veronica persica [4] = assay: Post-emergence herbicidal action against VERPE; conditions: visual assessment about 3 weeks after treatment
Procedure, shortened: (§2)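 Percent herbicidal action is rated by eye about 3 weeks after treatment against untreated controls, where 100% means dead plants and 0% means like controls. Plants in sandy loam are sprayed on green parts at the one-leaf stage with aqueous WP or EC preparations at 600 to 800 l/ha plus 0.2% wetting agent.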

Echinochloa crus-galli [5] = assay: Pre-emergence herbicidal action against ECHCG; conditions: visual score after 3 weeks vs untreated controls
Procedure, shortened: as §1

Echinochloa crus-galli [6] = assay: Post-emergence herbicidal action against ECHCG; conditions: visual assessment about 3 weeks after treatment
Procedure, shortened: as §2

Abutilon theophrasti [7] = assay: Pre-emergence herbicidal action against ABUTH; conditions: visual score after 3 weeks vs untreated controls
Procedure, shortened: as §1

Setaria viridis = assay: Pre-emergence herbicidal action against SETVI; conditions: 320 g/ha
Procedure, shortened: as §1

Hordeum murinum = assay: Pre-emergence herbicidal action against HORMU; conditions: 320 g/ha; visual score after 3 weeks vs untreated controls
Source text: Seeds of monocotyledonous and dicotyledonous weed plants and crop plants are laid out in sandy loam soil in wood-fiber pots and covered with soil. The compounds of the invention, formulated in the form of wettable powders (WP) or as emulsion concentrates (EC), are then applied to the surface of the covering soil in the form of an aqueous suspension or emulsion at a water application rate equivalent to 600 to 800 l/ha, with addition of 0.2% wetting agent. After the treatment, the pots are placed in a greenhouse and kept under good growth conditions for the trial plants. The damage to the test plants is scored visually after a test period of 3 weeks by comparison with untreated controls (herbicidal activity in percent (%): 100% activity=the plants have died, 0% activity=like control plants). […] The tables below illustrate, in an illustrative manner, the post-emergence herbicidal action of the compounds of the invention, the herbicidal activity being stated in percent.

Abutilon theophrasti [8] = assay: Post-emergence herbicidal action against ABUTH
Procedure, shortened: as §2

Alopecurus myosuroides = assay: Pre-emergence herbicidal action against ALOMY; conditions: visual score after 3 weeks vs untreated controls
Procedure, shortened: as §1

Matricaria inodora [9] = assay: Pre-emergence herbicidal action against MATIN; conditions: visual score after 3 weeks vs untreated controls
Procedure, shortened: as §1

Matricaria inodora [10] = assay: Post-emergence herbicidal action against MATIN; conditions: visual assessment about 3 weeks after treatment
Procedure, shortened: as §2

Pharbitis purpurea [11] = assay: Post-emergence herbicidal action against PHBPU; conditions: 80 g/ha, visual assessment about 3 weeks after treatment
Procedure, shortened: as §2

Amaranthus retroflexus [12] = assay: Pre-emergence herbicidal action against AMARE; conditions: visual score after 3 weeks vs untreated controls
Procedure, shortened: as §1

Polygonum convolvulus [13] = assay: Post-emergence herbicidal action against POLCO; conditions: 80 g/ha, visual assessment about 3 weeks after treatment
Method: Seeds of monocotyledonous and dicotyledonous weed and crop plants are laid out in sandy loam soil in wood-fiber pots, covered with soil and cultivated in a greenhouse under good growth conditions. 2 to 3 weeks after sowing, the test plants are treated at the one-leaf stage. The compounds of the invention, formulated in the form of wettable powders (WP) or as emulsion concentrates (EC), are then sprayed onto the green parts of the plants in the form of an aqueous suspension or emulsion at a water application rate equivalent to 600 to 800 l/ha, with addition of 0.2% wetting agent. After the test plants have been left to stand in the greenhouse under optimal growth conditions for about 3 weeks, the action of the preparations is assessed visually in comparison to untreated controls (herbicidal action in percent (%): 100% activity=the plants have died, 0% activity=like control plants). […] The tables below illustrate, in an illustrative manner, the post-emergence herbicidal action of the compounds of the invention, the herbicidal activity being stated in percent.

Viola tricolor [14] = assay: Post-emergence herbicidal action against VIOTR; conditions: 80 g/ha
Procedure, shortened: as §2

Veronica persica [15] = assay: Pre-emergence herbicidal action against VERPE; conditions: 320 g/ha
Procedure, shortened: as §1

Amaranthus retroflexus [16] = assay: Post-emergence herbicidal action against AMARE; conditions: visual assessment about 3 weeks after treatment
Procedure, shortened: as §2

Avena fatua = assay: Pre-emergence herbicidal action against AVEFA; conditions: 320 g/ha; visual score after 3 weeks vs untreated controls
Procedure, shortened: as §1

Stellaria media [17] = assay: Post-emergence herbicidal action against STEME; conditions: visual assessment about 3 weeks after treatment
Procedure, shortened: as §2

Viola tricolor [18] = assay: Pre-emergence herbicidal action against VIOTR
Procedure, shortened: as §1

Cc1ccccc1N(C)C(=O)c1c(Cl)ccc(C(=O)Nc2nnnn2C)c1Cl [Example 1-399]
Pre-emergence action against STEME (Stellaria media [1]; 20 g/ha): 90%
Pre-emergence action against STEME (Stellaria media [1]; 80 g/ha): 90%
Pre-emergence action against STEME (Stellaria media [1]; 320 g/ha): 100%
Pre-emergence action against POLCO (Polygonum convolvulus [2]): 90%
Pre-emergence action against PHBPU (Pharbitis purpurea [3]): 90%
Pre-emergence action against CYPES (Cyperus esculentus): 90%
Post-emergence action against VERPE in % (Veronica persica [4]; 20 g/ha): 80%
Post-emergence action against VERPE in % (Veronica persica [4]; 80 g/ha): 90%
Pre-emergence action against ECHCG (Echinochloa crus-galli [5]; 80 g/ha): 100%
Pre-emergence action against ECHCG (Echinochloa crus-galli [5]; 320 g/ha): 100%
Post-emergence action against ECHCG in % (Echinochloa crus-galli [6]; 20 g/ha): 80%
Post-emergence action against ECHCG in % (Echinochloa crus-galli [6]; 80 g/ha): 100%
Pre-emergence action against ABUTH (Abutilon theophrasti [7]; 80 g/ha): 100%
Pre-emergence action against ABUTH (Abutilon theophrasti [7]; Dosage column 320 g/ha (heading prints 3200 g/ha)): 100%
Pre-emergence action against SETVI (Setaria viridis): 100%
Pre-emergence action against HORMU (Hordeum murinum): 90%
Post-emergence action against ABUTH (Abutilon theophrasti [8]; 5 g/ha): 80%
Post-emergence action against ABUTH (Abutilon theophrasti [8]; 20 g/ha): 100%
Post-emergence action against ABUTH (Abutilon theophrasti [8]; 80 g/ha): 100%
Pre-emergence action against ALOMY (Alopecurus myosuroides; 80 g/ha): 80%
Pre-emergence action against ALOMY (Alopecurus myosuroides; 320 g/ha): 100%
Pre-emergence action against MATIN (Matricaria inodora [9]; 80 g/ha): 90%
Pre-emergence action against MATIN (Matricaria inodora [9]; 320 g/ha): 100%
Post-emergence action against MATIN in % (Matricaria inodora [10]; 20 g/ha): 90%
Post-emergence action against MATIN in % (Matricaria inodora [10]; 80 g/ha): 90%
Post-emergence action against PHBPU in % (Pharbitis purpurea [11]): 90%
Pre-emergence action against AMARE (Amaranthus retroflexus [12]; 20 g/ha): 90%
Pre-emergence action against AMARE (Amaranthus retroflexus [12]; 80 g/ha): 100%
Pre-emergence action against AMARE (Amaranthus retroflexus [12]; 320 g/ha): 100%
Post-emergence action against POLCO in % (Polygonum convolvulus [13]): 100%
Post-emergence action against VIOTR in % (Viola tricolor [14]): 100%
Pre-emergence action against VERPE (Veronica persica [15]): 80%
Post-emergence action against AMARE in % (Amaranthus retroflexus [16]; 5 g/ha): 100%
Post-emergence action against AMARE in % (Amaranthus retroflexus [16]; 20 g/ha): 100%
Post-emergence action against AMARE in % (Amaranthus retroflexus [16]; 80 g/ha): 100%
Pre-emergence action against AVEFA (Avena fatua): 90%
Post-emergence action against STEME in % (Stellaria media [17]; 5 g/ha): 80%
Post-emergence action against STEME in % (Stellaria media [17]; 20 g/ha): 90%
Post-emergence action against STEME in % (Stellaria media [17]; 80 g/ha): 100%
Pre-emergence action against VIOTR (Viola tricolor [18]; 80 g/ha): 100%
Pre-emergence action against VIOTR (Viola tricolor [18]; 320 g/ha): 100%
